According to patent US7226915B2, “Diaminopyrroloquinazolines compounds as protein tyrosine phosphatase inhibitors” (Hoffmann-La Roche Inc., priority 2003, dated 2007):
pIC50: −log10 of the molar value. Counter-ions that a name gives are not always drawn.

Molecular target: T1, Human PTP1B (1-321) (Homo sapiens, UniProt P18031)
T1 construct: Human PTP1B (1-321) was cloned from a human cDNA library; made in house; host or cells: E. coli
T1 sequence (P18031 1-321): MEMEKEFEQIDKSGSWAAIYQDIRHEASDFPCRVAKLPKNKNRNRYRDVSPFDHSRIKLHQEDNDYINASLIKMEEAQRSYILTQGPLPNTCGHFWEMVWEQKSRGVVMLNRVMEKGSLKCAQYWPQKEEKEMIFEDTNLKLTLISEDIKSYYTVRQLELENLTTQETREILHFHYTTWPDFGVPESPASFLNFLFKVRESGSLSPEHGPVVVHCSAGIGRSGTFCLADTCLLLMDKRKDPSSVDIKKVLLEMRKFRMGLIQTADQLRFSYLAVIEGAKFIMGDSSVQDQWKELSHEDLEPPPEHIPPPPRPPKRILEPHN
Test: In vitro inhibition of PTP1B (PTPase assay)
Format: biochemical
Settings: one of two methods: phosphopeptide substrate TRDI(pY)E with Malachite Green, or DiFMUP fluorescence; pH 6.2; read-out: IC50 (PTP1B inhibitory activity)
Method: Human PTP1B (1-321) was cloned from a human cDNA library using conventional molecular biology techniques. The cDNA sequence was identical to the published human PTP1B sequence (Accession number M33689). The protein was expressed and purified from E. coli as described by Barford D. et. al J. Mol Biol (1994) 239, 726–730.
The measurement of PTPase activity was carried out using one of two methods:
The first method for the measurement of PTP1B inhibitory activity a tyrosine phosphorylated peptide based on the amino acid sequence of insulin receptor tyrosine autophosphorylation site 1146 (TRDI(pY)E) was used as substrate. The reaction conditions were as follows:
PTP1B (0.5–2 nM) was incubated with compound for 15 min in buffer containing 37.5 mM Bis-Tris buffer pH 6.2, 140 mMNaCl, 0.05% BSA and 2 mM DTT. The reaction was started by the addition of 50 μM substrate. After 20 min at room temperature (22–25° C.), the reaction was stopped with KOH and the amount of free phosphate measured using Malachite Green as previously described (Harder et al. 1994 Biochem J. 298; 395).
The second method was used for the measurement of general PTPase inhibitory activity across a panel of PTPases the substrate (6,8-difluoro-4-methylumbelliferyl phosphate (DiFMUP; from Molecular Probes) was used at the Km for each enzyme. The buffer conditions were identical as in the Malachite Green assay. The reaction was stopped with KOH. In this case the dephosphoryated product becomes fluorescent and the fluorescense read (Excitiation:360 mM/Emmission: 460 nM).

pIC50 | SMILES
5.02 | CN(C)c1nc(N)nc2cc(-c3ccccc3C(F)(F)F)c3c(ccn3C)c12 [Example 4, 7,N1,N1-Trimethyl-6-(2-trifluoromethyl-phenyl)-7H-pyrrolo[3,2-f]quinazoline-1,3-diamine trifluoro-acetic acid salt]
5.15 | Cc1ccc(-c2cc3nc(N)nc(NCCO)c3c3ccn(C)c23)s1 [Example 2, 2-[3-Amino-7-methyl-6-(5-methyl-thiophen-2-yl)-7H-pyrrolo[3,2-f]quinazolin-1-ylamino]-ethanol trifluoro-acetic acid salt]
4.99 | Cn1ccc2c3c(NCCCO)nc(N)nc3cc(-c3ccccc3C(F)(F)F)c21 [Example 6, 3-[3-Amino-7-methyl-6-(2-trifluoromethyl-phenyl)-7H-pyrrolo[3,2-f]quinazolin-1-ylamino]-propan-1-ol trifluoro-acetic acid salt]
4.95 | Nc1nc(NCCO)c2c(cc(-c3ccccc3C(F)(F)F)c3c2ccn3CCO)n1 [Example 8, 2-[3-Amino-7-(2-hydroxy-ethyl)-6-(2-trifluoromethyl-phenyl)-7H-pyrrolo[3,2-f]quinazolin-1-ylamino]-ethanol trifluoro-acetic acid salt]
